Assays:
Type in all cases: cell-based, mouse
[1] = test system: M2-10B4 marrow stromal cells; assay: Matrix mineralization (45Ca incorporation assay, von Kossa staining) in M2-10B4 marrow stromal cells; conditions: for effect on oxysterol-induced mineralization: 22R+20S (RS), SC-560 10 μM, ACA 25 μM, AACOCF3 20 μM or PD98059 20 μM, 10 days
Method: (§1) Cells: M2-10B4 mouse marrow stromal cell line obtained from American Type Culture Collection (ATCC, Rockville, Md., U.S.A.) was derived from bone marrow stromal cells of a (C57BL/6J x C3H/HeJ) Fl mouse, and support human and murine myelopoiesis in long-term cultures (as per ATCC) and have the ability to differentiate into osteoblastic and adipocytic cells. Unless specified, these cells were cultured in RPMI 1640 containing 10% heat-inactivated FBS, and supplemented with 1 mM sodium pyruvate, 100 U/ml penicillin, and 100 U/ml streptomycin (all from Irvine Scientific).
Von Kossa and oil red O staining—Matrix mineralization in cell monolayers was detected by silver nitrate staining as previously described. Oil red O staining for detection of adipocytes was performed as previously described.
^45Ca incorporation assay—Matrix mineralization in cell monolayers was quantified using the ^45Ca incorporation assay as previously described.
After 14 days, mineralization was identified by a von Kossa staining, which appears black. FIG. 3C is a depiction of von Kossa staining of M2 cells exposed to various conditions.
After 14 days, matrix mineralization in cultures was quantified using a ^45Ca incorporation assay.
(§2) Next, a combination of 22R and 20S oxysterols (RS, 2.5 μM each) were added in the presence or absence of SC as indicated. After 3 days, ALP activity was measured as described earlier. […] (B) M2 cells were treated as described in (A) and after 10 days matrix mineralization in cultures was quantified by a ^45Ca incorporation assay as described earlier. […] (C) M2 cells were pretreated with 20 μM SC for 4 hours, followed by the addition of RS in the presence or absence of SC as described above. After 8 days, total RNA was isolated and analyzed for osteocalcin (Osc) and […] expression by Northern blotting as previously described. Data from densitometric analysis of the Northern blot is shown in (D) as the average of duplicate samples, normalized to 18S rRNA. (E) M2 cells at confluence were pretreated for 2 hours with control vehicle (C), or PLA2 inhibitors ACA (25 μM) and AACOCF3 (AAC, 20 μM), in osteogenic medium. Next, a combination of 22R and 20S oxysterols (RS, 2.5 μM) was added in the presence or absence of the inhibitors as indicated. After 3 days, ALP activity was measured as previously described. […] (F) M2 cells were treated as described in (E). After 10 days, matrix mineralization in cultures was quantified using a ^45Ca incorporation assay as previously described. Results from a representative of three experiments are shown, reported as the mean of quadruplicate determinations ±SD, normalized to protein concentration (p<0.01 for RS vs. RS+ACA and RS+AAC).
(A) M2 cells at confluence were pretreated for four hours with RPMI containing 1% FBS, followed by treatment with control vehicle or 5 μM 20S oxysterol for 1, 4, or 8 hours. Next total cell extracts were prepared and analyzed for levels of native or phosphorylated ERK (pERK) using specific antibodies as previously described. Data from a representative of four experiments are shown, each treatment shown in duplicate samples. (B) M2 cells at confluence were pretreated for 2 hours with control vehicle (C) or 20 μM PD98059 (PD) in osteogenic medium as previously described. Next, a combination of 22R and 20S oxysterols (RS, 5 μM each) were added to appropriate wells as indicated. After 10 days of incubation, matrix mineralization was quantified by the ^45Ca incorporation assay as previously described. […] (C) M2 cells at confluence were pretreated for 2 hours with 20 µM PD98059 (PD) in RPMI containing 5% FBS. Next, the cells were treated with control vehicle (C), 10 μM troglitazone (Tro), or 10 μM of 20S or 22S oxysterols, alone or in combination as indicated. After 10 days, adipocytes were visualized by oil Red O staining and quantified by light microscopy as previously described. […]

marrow stromal cells = assay: Osteogenic differentiation of marrow stromal cells (marker not specified: ALP activity, osteocalcin mRNA, mineral formation)
Method: The purpose of the study was to identify other osteogenic and anti-adipogenic oxysterols based on the chemical structure of previously identified oxysterols. The ability of such candidate oxysterol molecules to induce the formation of osteoblastic cells in cultures of marrow stromal cells (which are progenitors of osteoblastic cells that make bone) were tested. In order to assess osteogenic differentiation of cells, one or more markers of osteogenic differentiation were measured in untreated cells and cells treated with the test oxysterols. These markers included: alkaline phosphatase activity, osteocalcin mRNA expression and mineral formation in cultures of marrow stromal cells. Activation of either one or more than one marker by a single or combination oxysterols is indicative of their osteogenic property.

osteocalcin mRNA = assay: Northern blotting for osteocalcin mRNA in M2-10B4 cells; conditions: for synergy with oxysterols in induction of osteocalcin: BMP 50 ng/ml with 22S+20S (SS, 2.5 μM)
Method: RNA isolation and Northern blot analysis—Following treatment of cells under appropriate experimental conditions, total RNA was isolated using the RNA isolation kit from Stratagene (La Jolla, Calif., U.S.A.). Total RNA ([…]) was run on a 1% agarose/formaldehyde gel and transferred to Duralon-UV membranes (Strategene, CA, U.S.A.) and cross-linked with UV light. The membranes were hybridized overnight at 60 degree C. with ^32P-labeled mouse osteocalcin cDNA probe, mouse lipoprotein lipase (LPL), mouse adipocyte protein 2 (aP^2) PCR-generated probes, human 28S or 18S rRNA probes obtained from Geneka Biotechnology (Montreal, Quebec, Canada) and Maxim Biotech (San Francisco, Calif., U.S.A.), respectively. The PCR products were generated using primer sets synthesized by Invitrogen (Carlsbad, Calif., U.S.A.) with the following specifications: mouse aP2 gene (accession no. M13261); sense (75-95) 5′-[…]-3′, antisense (362-383) 5′-[…]-3′, generating a PCR product of 309 base pairs. Mouse LPL (accession no. XM—134193); sense (1038-1058) 5′-[…]-3′, antisense (1816-1836) 5′-[…]-3′, generating a PCR product of 799 base pairs. The PCR products were gel-purified and sequenced by the UCLA sequencing core, showing the highest similarity to their respective GenBank entries. Following hybridization, the blots were washed twice at room temperature with 2×SSC+0.1% SDS, and then twice at 60 degree C. with 0.5×SSC+0.1% SDS, and exposed to X-ray film. The extent of gene induction was determined by densitometry.
After 4 and 8 days, total RNA from duplicate samples was isolated and analyzed for osteocalcin (Osc) and 28S rRNA expression by Northern blotting as described. FIG. 3E is a radiogram of Northern blotting for osteocalcin mRNA in M2 cells exposed to a control or combination of oxysterols for 4 or 8 days. FIG. 3F is a bar graph depicting the relative demsometric units of osteocalcin mRNA in M2 cells exposed to a control or combination of oxysterols for 4 -or 8 days. Data from densitometric analysis of the Northern blot is shown in (F) as the average of duplicate samples, normalized to 28S rRNA.
as §2
ALP activity was measured after 2 days, as described. […] (B) M2 cells were treated as described in (A). After 10 days, matrix mineralization in cultures was quantified using a ^45Ca incorporation assay as described. […] (C) M2 cells were treated under similar conditions as those described above. […]

[2] = test system: M2-10B4 marrow stromal cells; assay: Alkaline phosphatase (ALP) activity assay on whole cell extracts of M2-10B4 marrow stromal cells; conditions: for effect on oxysterol-induced alkaline phosphatase activity: 22R+20S (RS), pretreatment with SC-560 10 μM, ACA 25 μM, AACOCF3 20 μM or PD98059 20 μM, 3 days; for reversal of the effects of COX-1 and PLA2 inhibitors on oxysterol-induced alkaline phosphatase activity: 1 μM PGE2, 25 μM arachidonic acid, data not shown
Method: as §1
Cells were always treated at 90% confluence. […]
as §2, with “Results from a representative of three experiments are shown, reported as the mean of quadruplicate determinations ±SD, normalized to protein concentration (p<0.01 for RS vs. RS+ACA and RS+AAC).” left out

[3] = pretreatment, cyclopamine 1-10 μM, DKK-1 1 μg/ml

Molecule: COc1cccc(-c2cc(=O)c3ccccc3o2)c1N [PD98059, reference compound]
- effect on oxysterol-induced mineralization [1]: inhibited

Molecule: C[C@]12CC[C@@H]3c4ccc(O)cc4CC[C@H]3[C@@H]1CC[C@@H]2O [beta-estradiol, reference compound]
- osteogenic properties (marrow stromal cells): did not have any osteogenic properties

Molecule: CC(C)CCC[C@@H](C)[C@H]1CC[C@H]2[C@@H]3[C@H](O)C=C4C[C@@H](O)CC[C@]4(C)[C@H]3CC[C@]12C [7alpha-hydroxycholesterol, reference compound]
- levels of osteocalcin mRNA relative to the control (osteocalcin mRNA; 5 μM, eight days, M2-10B4): did not appear to significantly affect

Molecule: COc1ccc(-n2nc(C(F)(F)F)cc2-c2ccc(Cl)cc2)cc1 [SC-560, reference compound]
- effect on oxysterol-induced mineralization [1]: inhibited
- effect on oxysterol-induced osteocalcin gene expression (osteocalcin mRNA; 22R+20S (RS), SC-560 20 μM, 8 days, PD98059 (data not shown)): inhibited

Molecule: CCCCC/C=C\C/C=C\C/C=C\C/C=C\CCCC(=O)C(F)(F)F [AACOCF3, reference compound]
- effect on oxysterol-induced alkaline phosphatase activity [2]: inhibited
- effect on oxysterol-induced mineralization [1]: inhibited

Molecule: CCCCC[C@H](O)/C=C/[C@H]1[C@H](O)CC(=O)[C@@H]1C/C=C\CCCC(=O)O [PGE2, prostaglandin E2, reference compound]
- reversal of the effects of COX-1 and PLA2 inhibitors on oxysterol-induced alkaline phosphatase activity [2]: reversed

Molecule: CCCCC/C=C\C/C=C\C/C=C\C/C=C\CCCC(=O)O [arachidonic acid, reference compound]
- reversal of the effects of COX-1 and PLA2 inhibitors on oxysterol-induced alkaline phosphatase activity [2]: reversed

Molecule: O=S(=O)(c1ccccc1)N(CC(F)(F)F)c1ccc(C(O)(C(F)(F)F)C(F)(F)F)cc1 [TO-901317, reference compound]
- effect on alkaline phosphatase activity ([2]; 1-10 μM): dose-dependent inhibition
- induction of mineralization ([1]; after 10 days): did not induce
- induction of osteocalcin gene expression (osteocalcin mRNA; after 10 days): did not induce

Molecule: BMP14: bone morphogenic protein 14
- synergy with oxysterols in induction of alkaline phosphatase activity [2]: synergistically induced
- synergy with oxysterols in induction of mineralization [1]: synergistically induced
- synergy with oxysterols in induction of osteocalcin (osteocalcin mRNA; eight days): synergistic induction

Molecule: CCCCCc1ccc(/C=C/C(=O)Nc2ccccc2C(=O)O)cc1 [ACA, reference compound]
- effect on oxysterol-induced alkaline phosphatase activity [2]: inhibited
- effect on oxysterol-induced mineralization [1]: inhibited

Molecule: C[C@@H](CO)CCC[C@@H](C)[C@H]1CC[C@H]2[C@@H]3CC=C4C[C@@H](O)CC[C@]4(C)[C@H]3CC[C@]12C [26-hydroxycholesterol]
- osteogenic property, alone or in combination with originally described oxysterols (marrow stromal cells): osteoinductive

Molecule: CS(=O)(=O)Nc1ccc([N+](=O)[O-])cc1OC1CCCCC1 [NS-398, reference compound]
- inhibition of the osteogenic effects of oxysterol combinations (marrow stromal cells; 22R+20S and 22S+20S, SC-560 1-20 μM, NS-398 20 μM (highest non-toxic dose)): negligible inhibitory effects

Molecule: DKK-1: Wnt signaling inhibitor
- effect on SS-induced alkaline phosphatase (ALP) activity [2, 3]: inhibited
- effect on SS-induced mineralization [1, 3]: inhibited
- effect on SS-induced osteocalcin mRNA expression (osteocalcin mRNA; [3]): inhibited

Molecule: C[C@]12CC[C@H]3[C@@H](CCC4=C[C@H](O)CC[C@@H]43)[C@@H]1CC[C@@H]2O [estren, reference compound]
- osteogenic properties (marrow stromal cells): did not have any osteogenic properties

B1: BMP7: bone morphogenic protein 7 (protein, UniProt P18075 293-431, looked up)
Bone morphogenetic protein 7: STGSKQRSQNRSKTPKNQEALRMANVAENSSSDQRQACKKHELYVSFRDLGWQDWIIAPEGYAAYYCEGECAFPLNSYMNATNHAIVQTLVHFINPETVPKPCCAPTQLNAISVLYFDDSSNVILKKYRNMVVRACGCH
- synergy with oxysterols in induction of alkaline phosphatase activity [2]: synergistically induced
- synergy with oxysterols in induction of mineralization [1]: synergistically induced
- synergy with oxysterols in induction of osteocalcin (osteocalcin mRNA; eight days): synergistic induction
